pEC50: −log10 of the molar value. Read-outs that look alike come from different tables or passages of the source. Where a SMILES comes first, the peptide text is derived from it. [ ]: non-standard residue; d: D form. The star is where a group is joined. Dolaproine = CO[C@@H]([C@@H]1CCCN1)[C@@H](C)C(=O)O; Dil = CC[C@H](C)[C@H](NC)[C@@H](CC(=O)O)OC; NMe2Val = CC(C)[C@@H](C(=O)*)N(C)C; NMeV = CN[C@H](C(=O)O)C(C)C; X3 = C[Si](C)(O)CCCC(=O)*; X2 = C[Si](C)(O)CCCN*
Key:
KB cells [1] = assay: Cell titer-glo cell viability, washout protocol; assay type: cell-based; conditions: percent cell kill at 48 h
Method: Washout protocol: KB cells in culture were seeded in white clear bottom 96-well tissue culture plate at a density of 5,000 cells per well in a folate free RPMI media with 10% FBS a day prior to compound addition. Cells were counted visually with a hemocytometer and diluted accordingly to obtain the desired density. Cells were allowed to incubate for 24 hours in a humidified CO2 atmosphere in an incubator at 37° C. The spent media was aspirated and replenished with 100 μL of fresh media containing a 3-fold serial dilution of compound with concentrations ranging from 0.3 to 2000 nM and with a final DMSO concentration of 0.1%. Blank wells without compound were also treated with media containing 0.1% DMSO. Cells were incubated for 2 h and washed 4 times with fresh media. […] […] 100 μL of constituted Cell titer-glo reagent was added to each well and luminescence was recorded with a VICTOR plate reader according to manufacturers' protocol.

KB cells [2] = assay: CellTiter-Glo cell viability, 72 hour incubation protocol; assay type: cell-based; conditions: Homo sapiens
Method: 72 hour incubation protocol: The CellTiter-Glo (CTG) assay (Promega) was used to measure cell viability in various different cell lines included KB cells obtained from American Type Culture Collection (ATCC). […] For this assay, 5,000 cells per well were plated in a 96-well tissue culture treated plate in RPMI 1640 medium (ThermoFisher Scientific) containing 5% FBS. Cells were allowed to settle at 37° C. in a humidified CO2 incubator for 24 hours. Cells were dosed with compound or vehicle control in duplicate for 72 hours at 37° C. in a humidified CO2 incubator. After the 72 hour dosing period, the CTG assay was performed according to the manufacturer's specifications. Luminescence was read using a Victor X5 (PerkinElmer) plate reader. Data was analyzed using Prism software and was normalized to the vehicle control.

[3] = 72 h incubation protocol, silanol based payloads, read-out: EC50

## CC[C@]1(O)C[C@@H]2CN(CCc3c([nH]c4ccccc34)[C@@](C(=O)OC)(c3cc4c(cc3OC)N(C)[C@H]3[C@@](O)(C(=O)NCCC[Si](C)(C)O[Si](C)(C)CSc5ncc(Cn6cc(C[C@H](NC(=O)[C@H](CC(=O)O)NC(=O)[C@H](CC(=O)O)NC(=O)[C@H](CCCNC(=N)N)NC(=O)[C@H](CC(=O)O)NC(=O)CC[C@H](NC(=O)c7ccc(NCc8cnc9nc(N)[nH]c(=O)c9n8)cc7)C(=O)O)C(=O)O)nn6)cn5)[C@H](O)[C@]5(CC)C=CCN6CC[C@]43[C@@H]65)C2)C1 [Example 28]
KB cells [1]
  % Kill (48 h): 86%

## CC[C@@]1(O)C(=O)OCc2c1cc1n(c2=O)Cc2c-1nc1ccccc1c2CC[Si](C)(C)O [Example 7, (S)-4-Ethyl-4-hydroxy-11-(2-(hydroxydimethylsilyl)ethyl)-1,12-dihydro-14H-pyrano[3′,4′:6,7]indolizino[1,2-b]quinoline-3,14(4H)-dione]
KB cells [2]; [3]
  pEC50: ~7.25

## CC[C@]1(O)CC2CN(CCc3c([nH]c4ccccc34)[C@@](C(=O)OC)(c3cc4c(cc3OC)N(C)[C@H]3[C@@](O)(C(=O)NCCC[Si](C)(C)O[Si](C)(C)CSc5ncc(COCCOCCOCCn6cc(COCC(COCc7cn(CCOCCOCCOCc8cnc(SC[Si](C)(C)O[Si](C)(C)CCCNC(=O)[C@@]9(O)[C@H](O)[C@]%10(CC)C=CCN%11CC[C@@]%12(c%13cc([C@@]%14(C(=O)OC)CC%15CN(CCc%16c%14[nH]c%14ccccc%16%14)C[C@](O)(CC)C%15)c(OC)cc%13N(C)[C@@H]9%12)[C@@H]%11%10)nc8)nn7)(COCc7cn(CCOCCOCCOCc8cnc(SC[Si](C)(C)O[Si](C)(C)CCCNC(=O)[C@@]9(O)[C@H](O)[C@]%10(CC)C=CCN%11CC[C@@]%12(c%13cc([C@@]%14(C(=O)OC)CC%15CN(CCc%16c%14[nH]c%14ccccc%16%14)C[C@](O)(CC)C%15)c(OC)cc%13N(C)[C@@H]9%12)[C@@H]%11%10)nc8)nn7)NC(=O)CCOCCOCCOCCOCCOCCOCCNC(=O)CC[C@H](NC(=O)c7ccc(NCc8cnc9nc(N)[nH]c(=O)c9n8)cc7)C(=O)O)nn6)cn5)[C@H](O)[C@]5(CC)C=CCN6CC[C@]43[C@@H]65)C2)C1 (some centres unmarked) [Example 27]
KB cells [1]
  % Kill (48 h): 80%

## CC[C@]1(O)C[C@@H]2CN(CCc3c([nH]c4ccccc34)[C@@](C(=O)OC)(c3cc4c(cc3OC)N(C)[C@H]3[C@@](O)(C(=O)NCCC[Si](C)(C)O[Si](C)(C)CSc5ncc(Cn6cc(COCCOCCOCCOCCOCCOCCNC(=O)CC[C@H](NC(=O)c7ccc(NCc8cnc9nc(N)[nH]c(=O)c9n8)cc7)C(=O)O)nn6)cn5)[C@H](O)[C@]5(CC)C=CCN6CC[C@]43[C@@H]65)C2)C1 [Example 24]
KB cells [1]
  % Kill (48 h): 84%

## CCCC(=O)OCN(C(=O)[C@@H](NC(=O)[C@H]1CCCCN1C)[C@@H](C)CC)[C@H](C[C@@H](OC(C)=O)c1nc(C(=O)N[C@@H](Cc2ccc(O)cc2)C[C@H](C)C(=O)NCCC[Si](C)(C)O)cs1)C(C)C (stereo in doubt) [Example 13]
KB cells [2]; 72 h
  pEC50: > 10.00

## CC[C@]1(O)C[C@H]2CN(CCc3c([nH]c4ccccc34)[C@@](C(=O)OC)(c3cc4c(cc3OC)N(C)[C@H]3[C@@](O)(C(=O)NCCC[Si](C)(C)O)[C@H](O)[C@]5(CC)C=CCN6CC[C@]43[C@@H]65)C2)C1 (stereo in doubt) [Example 1, Methyl (3R,5S,7R,9S)-5-ethyl-9-((3aR,3a1R,4R,5S,5aR,10bR)-3a-ethyl-4,5-dihydroxy-5-((3-(hydroxydimethylsilyl)propyl)carbamoyl)-8-methoxy-6-methyl-3a,3a1,4,5,5a,6,11,12-octahydro-1H-indolizino[8,1-cd]carbazol-9-yl)-5-hydroxy-1,4,5,6,7,8,9,10-octahydro-2H-3,7-methano[1]azacycloundecino[5,4-b]indole-9-carboxylate]
KB cells [2]; [3]
  pEC50: ~8.22

## CC[C@H](C)[C@@H]([C@@H](CC(=O)N1CCC[C@H]1[C@H](OC)[C@@H](C)C(=O)N[C@@H](Cc1ccccc1)C(=O)NCCC[Si](C)(C)O)OC)N(C)C(=O)[C@@H](NC(=O)[C@H](C(C)C)N(C)C)C(C)C [Example 5, (S)—N-((3R,4S,5S)-1-((S)-2-((3R,4R,7S)-7-benzyl-13-hydroxy-4,13-dimethyl-5,8-dioxo-2-oxa-6,9-diaza-13-silatetradecan-3-yl)pyrrolidin-1-yl)-3-methoxy-5-methyl-1-oxoheptan-4-yl)-2-((S)-2-(dimethylamino)-3-methylbutanamido)-N,3-dimethylbutanamide] (NMe2Val-V[Dil][Dolaproine]F-X2)
KB cells [2]; 72 h
  pEC50: ~9.30

## CC[C@H](C)[C@@H]([C@@H](CC(=O)N1CCC[C@H]1[C@H](OC)[C@@H](C)C(=O)N[C@@H](Cc1ccccc1)C(=O)O)OC)N(C)C(=O)[C@@H](NC(=O)[C@H](C(C)C)N(C)C(=O)CCC[Si](C)(C)O)C(C)C [Example 6, ((2R,3R)-3-((S)-1-((3R,4S,5S)-4-((S)-2-((S)-2-(4-(hydroxydimethylsilyl)-N-methylbutanamido)-3-methylbutanamido)-N,3-dimethylbutanamido)-3-methoxy-5-methylheptanoyl)pyrrolidin-2-yl)-3-methoxy-2-methylpropanoyl)-L-phenylalanine] (X3-[NMeV]V[Dil][Dolaproine]F-OH)
KB cells [2]; 72 h
  pEC50: ~6.30
